Source: paper PMC3382171 (PLoS ONE, 2012)

Key:
Assay in all cases: biochemical
Parameters in all cases: Invitrogen SelectScreen kinase panel, percent inhibition at 1 uM, ATP at Km
Conditions in all cases: read-out: Invitrogen KSS %Inh at 1 µM
AKT3 (PKB gamma) = AKT3 (PKB gamma) (Homo sapiens, UniProt Q9Y243)
Method in brief: (§1)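 Commercial kinase panel screens run with ATP at the Km for each kinase. Compounds tested at 1 µM final concentration; values are % inhibition of phosphorylation relative to control.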

MARK1 = MARK1 (Homo sapiens, UniProt Q9P0L2)
Method in brief: as §1

PDGFRA (PDGFR alpha) = PDGFRA (PDGFR alpha) (Homo sapiens, UniProt P16234)
Method in brief: as §1

FGR = FGR (Homo sapiens, UniProt P09769)
Method in brief: as §1

AKT2 (PKB beta) = AKT2 (PKB beta) (Homo sapiens, UniProt P31751)
Method in brief: as §1

PTK6 (Brk) = PTK6 (Brk) (Homo sapiens, UniProt Q13882)
Method in brief: as §1

PIM2 = PIM2 (Homo sapiens, UniProt Q9P1W9)
Method in brief: as §1

YES1 = YES1 (Homo sapiens, UniProt P07947)
Method in brief: as §1

TEK (Tie2) = TEK (Tie2) (Homo sapiens, UniProt Q02763)
Method in brief: as §1

EGFR (ErbB1) = EGFR (ErbB1) (Homo sapiens, UniProt P00533)
Method in brief: as §1

[1] = target: PIK3CA/PIK3R1 (p110 alpha/p85 alpha) (Homo sapiens, UniProt P42336)
Sequence of PIK3CA/PIK3R1 (p110 alpha/p85 alpha) (P42336 whole entry): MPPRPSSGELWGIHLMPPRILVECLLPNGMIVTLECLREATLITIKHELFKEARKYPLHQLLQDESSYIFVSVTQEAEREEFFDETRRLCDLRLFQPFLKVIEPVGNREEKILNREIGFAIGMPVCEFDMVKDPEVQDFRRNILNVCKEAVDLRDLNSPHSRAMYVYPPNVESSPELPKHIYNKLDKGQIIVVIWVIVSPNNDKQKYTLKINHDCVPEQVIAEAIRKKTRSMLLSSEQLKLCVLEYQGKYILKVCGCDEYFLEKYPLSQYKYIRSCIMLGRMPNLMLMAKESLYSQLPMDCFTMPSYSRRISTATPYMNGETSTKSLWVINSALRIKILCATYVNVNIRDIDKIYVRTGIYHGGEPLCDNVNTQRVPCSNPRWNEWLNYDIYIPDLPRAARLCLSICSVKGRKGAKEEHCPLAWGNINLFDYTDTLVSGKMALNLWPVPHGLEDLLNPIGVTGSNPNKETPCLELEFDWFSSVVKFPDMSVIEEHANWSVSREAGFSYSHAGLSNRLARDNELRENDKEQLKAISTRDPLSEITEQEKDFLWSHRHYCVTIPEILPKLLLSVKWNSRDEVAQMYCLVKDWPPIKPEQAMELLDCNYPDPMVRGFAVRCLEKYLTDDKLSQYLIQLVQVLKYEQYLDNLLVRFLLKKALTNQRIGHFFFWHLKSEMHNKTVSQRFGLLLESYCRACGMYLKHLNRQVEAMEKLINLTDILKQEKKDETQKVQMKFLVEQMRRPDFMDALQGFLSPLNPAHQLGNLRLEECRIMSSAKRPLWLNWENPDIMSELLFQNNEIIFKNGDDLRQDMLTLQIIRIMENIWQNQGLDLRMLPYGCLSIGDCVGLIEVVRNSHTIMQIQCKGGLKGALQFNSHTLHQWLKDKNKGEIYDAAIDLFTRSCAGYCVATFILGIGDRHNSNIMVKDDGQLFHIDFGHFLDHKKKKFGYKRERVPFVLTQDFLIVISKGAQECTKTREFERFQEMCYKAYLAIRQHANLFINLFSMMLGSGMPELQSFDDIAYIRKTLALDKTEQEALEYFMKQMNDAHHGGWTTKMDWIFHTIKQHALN
Sequence of PIK3CA/PIK3R1 (p110 alpha/p85 alpha) (P27986 whole entry partner): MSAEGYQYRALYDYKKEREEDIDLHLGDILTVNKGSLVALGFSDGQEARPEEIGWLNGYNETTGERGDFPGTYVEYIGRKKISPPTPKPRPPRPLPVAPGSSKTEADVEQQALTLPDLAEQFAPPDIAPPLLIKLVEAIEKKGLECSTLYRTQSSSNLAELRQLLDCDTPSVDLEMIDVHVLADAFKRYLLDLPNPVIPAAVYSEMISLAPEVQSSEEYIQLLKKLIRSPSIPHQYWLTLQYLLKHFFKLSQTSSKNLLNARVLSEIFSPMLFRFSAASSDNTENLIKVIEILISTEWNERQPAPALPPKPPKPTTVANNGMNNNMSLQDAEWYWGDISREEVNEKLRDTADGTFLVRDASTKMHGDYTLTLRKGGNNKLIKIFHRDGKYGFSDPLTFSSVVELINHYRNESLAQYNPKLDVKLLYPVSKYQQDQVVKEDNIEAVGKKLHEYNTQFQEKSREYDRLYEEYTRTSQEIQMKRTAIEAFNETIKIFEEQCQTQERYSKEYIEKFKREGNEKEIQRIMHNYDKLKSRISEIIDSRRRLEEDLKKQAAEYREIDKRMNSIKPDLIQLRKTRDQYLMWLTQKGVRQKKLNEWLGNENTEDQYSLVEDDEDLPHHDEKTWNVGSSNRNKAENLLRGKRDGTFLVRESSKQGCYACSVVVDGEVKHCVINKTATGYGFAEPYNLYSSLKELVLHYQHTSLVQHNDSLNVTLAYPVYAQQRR
Method in brief: as §1

FGFR1 = FGFR1 (Homo sapiens, UniProt P11362)
Method in brief: as §1

PDGFRB (PDGFR beta) = PDGFRB (PDGFR beta) (Homo sapiens, UniProt P09619)
Method in brief: as §1

ITK = ITK (Homo sapiens, UniProt Q08881)
Method in brief: as §1

CHEK2 (CHK2) = CHEK2 (CHK2) (Homo sapiens, UniProt O96017)
Method in brief: as §1

AURKA (Aurora A) = AURKA (Aurora A) (Homo sapiens, UniProt O14965)
Sequence of AURKA (Aurora A) (O14965 whole entry): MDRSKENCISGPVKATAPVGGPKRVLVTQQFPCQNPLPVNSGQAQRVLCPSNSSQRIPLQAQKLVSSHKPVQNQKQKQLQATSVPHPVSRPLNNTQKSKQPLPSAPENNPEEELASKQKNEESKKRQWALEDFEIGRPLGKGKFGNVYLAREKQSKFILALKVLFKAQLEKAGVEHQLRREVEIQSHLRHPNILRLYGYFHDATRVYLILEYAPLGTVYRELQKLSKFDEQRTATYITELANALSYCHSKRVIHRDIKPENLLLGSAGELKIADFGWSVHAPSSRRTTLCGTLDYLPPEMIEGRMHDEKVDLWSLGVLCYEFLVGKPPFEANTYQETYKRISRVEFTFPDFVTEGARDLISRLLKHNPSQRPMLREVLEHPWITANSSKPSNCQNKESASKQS
Method in brief: as §1

CHEK1 (CHK1) = CHEK1 (CHK1) (Homo sapiens, UniProt O14757)
Method in brief: as §1

NEK2 = NEK2 (Homo sapiens, UniProt P51955)
Sequence of NEK2 (P51955 whole entry): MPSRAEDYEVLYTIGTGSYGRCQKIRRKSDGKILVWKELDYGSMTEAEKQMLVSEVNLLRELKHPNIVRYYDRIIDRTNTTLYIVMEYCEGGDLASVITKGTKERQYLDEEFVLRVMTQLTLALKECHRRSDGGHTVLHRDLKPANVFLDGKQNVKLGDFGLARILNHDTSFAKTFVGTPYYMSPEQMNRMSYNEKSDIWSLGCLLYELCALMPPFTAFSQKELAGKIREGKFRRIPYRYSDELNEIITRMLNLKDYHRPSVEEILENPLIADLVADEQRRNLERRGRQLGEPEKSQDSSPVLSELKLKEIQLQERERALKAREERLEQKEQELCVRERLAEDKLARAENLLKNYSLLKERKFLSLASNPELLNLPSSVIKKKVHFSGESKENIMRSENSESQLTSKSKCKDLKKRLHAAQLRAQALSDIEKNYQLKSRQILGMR
Method in brief: as §1

JAK3 = JAK3 (Homo sapiens, UniProt P52333)
Sequence of JAK3 (P52333 whole entry): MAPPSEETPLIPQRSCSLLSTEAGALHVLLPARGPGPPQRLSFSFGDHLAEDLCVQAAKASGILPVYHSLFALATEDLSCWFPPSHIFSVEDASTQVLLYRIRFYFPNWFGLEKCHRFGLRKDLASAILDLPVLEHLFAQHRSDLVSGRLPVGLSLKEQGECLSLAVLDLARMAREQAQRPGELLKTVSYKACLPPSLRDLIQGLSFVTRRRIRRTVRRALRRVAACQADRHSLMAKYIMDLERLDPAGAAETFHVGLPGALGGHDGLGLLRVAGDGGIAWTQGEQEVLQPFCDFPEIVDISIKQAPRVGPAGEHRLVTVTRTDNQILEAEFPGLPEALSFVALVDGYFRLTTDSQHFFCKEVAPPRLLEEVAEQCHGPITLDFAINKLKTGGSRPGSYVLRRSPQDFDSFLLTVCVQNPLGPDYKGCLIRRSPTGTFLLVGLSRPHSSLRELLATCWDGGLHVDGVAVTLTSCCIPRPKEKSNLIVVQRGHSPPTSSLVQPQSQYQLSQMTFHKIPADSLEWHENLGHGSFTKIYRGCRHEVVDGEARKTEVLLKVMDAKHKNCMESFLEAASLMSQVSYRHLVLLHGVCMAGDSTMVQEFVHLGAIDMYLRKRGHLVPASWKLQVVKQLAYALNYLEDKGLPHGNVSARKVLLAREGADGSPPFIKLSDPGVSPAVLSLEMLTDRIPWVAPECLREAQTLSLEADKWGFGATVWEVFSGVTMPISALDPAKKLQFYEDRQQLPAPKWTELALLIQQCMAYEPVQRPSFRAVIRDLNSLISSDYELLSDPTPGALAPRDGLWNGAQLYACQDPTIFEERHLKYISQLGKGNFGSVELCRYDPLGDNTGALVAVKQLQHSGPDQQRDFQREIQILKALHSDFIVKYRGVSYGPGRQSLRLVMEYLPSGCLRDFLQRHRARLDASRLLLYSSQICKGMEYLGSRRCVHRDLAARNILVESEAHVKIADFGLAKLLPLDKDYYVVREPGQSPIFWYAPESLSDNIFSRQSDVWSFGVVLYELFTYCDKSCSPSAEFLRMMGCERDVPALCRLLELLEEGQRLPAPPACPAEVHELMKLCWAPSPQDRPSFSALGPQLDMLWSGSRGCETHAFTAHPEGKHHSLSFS
Method in brief: as §1

PTK2B (FAK2) = PTK2B (FAK2) (Homo sapiens, UniProt Q14289)
Method in brief: as §1

PIM1 = PIM1 (Homo sapiens, UniProt P11309)
Method in brief: as §1

ERBB4 (HER4) = ERBB4 (HER4) (Homo sapiens, UniProt Q15303)
Sequence of ERBB4 (HER4) (Q15303 whole entry): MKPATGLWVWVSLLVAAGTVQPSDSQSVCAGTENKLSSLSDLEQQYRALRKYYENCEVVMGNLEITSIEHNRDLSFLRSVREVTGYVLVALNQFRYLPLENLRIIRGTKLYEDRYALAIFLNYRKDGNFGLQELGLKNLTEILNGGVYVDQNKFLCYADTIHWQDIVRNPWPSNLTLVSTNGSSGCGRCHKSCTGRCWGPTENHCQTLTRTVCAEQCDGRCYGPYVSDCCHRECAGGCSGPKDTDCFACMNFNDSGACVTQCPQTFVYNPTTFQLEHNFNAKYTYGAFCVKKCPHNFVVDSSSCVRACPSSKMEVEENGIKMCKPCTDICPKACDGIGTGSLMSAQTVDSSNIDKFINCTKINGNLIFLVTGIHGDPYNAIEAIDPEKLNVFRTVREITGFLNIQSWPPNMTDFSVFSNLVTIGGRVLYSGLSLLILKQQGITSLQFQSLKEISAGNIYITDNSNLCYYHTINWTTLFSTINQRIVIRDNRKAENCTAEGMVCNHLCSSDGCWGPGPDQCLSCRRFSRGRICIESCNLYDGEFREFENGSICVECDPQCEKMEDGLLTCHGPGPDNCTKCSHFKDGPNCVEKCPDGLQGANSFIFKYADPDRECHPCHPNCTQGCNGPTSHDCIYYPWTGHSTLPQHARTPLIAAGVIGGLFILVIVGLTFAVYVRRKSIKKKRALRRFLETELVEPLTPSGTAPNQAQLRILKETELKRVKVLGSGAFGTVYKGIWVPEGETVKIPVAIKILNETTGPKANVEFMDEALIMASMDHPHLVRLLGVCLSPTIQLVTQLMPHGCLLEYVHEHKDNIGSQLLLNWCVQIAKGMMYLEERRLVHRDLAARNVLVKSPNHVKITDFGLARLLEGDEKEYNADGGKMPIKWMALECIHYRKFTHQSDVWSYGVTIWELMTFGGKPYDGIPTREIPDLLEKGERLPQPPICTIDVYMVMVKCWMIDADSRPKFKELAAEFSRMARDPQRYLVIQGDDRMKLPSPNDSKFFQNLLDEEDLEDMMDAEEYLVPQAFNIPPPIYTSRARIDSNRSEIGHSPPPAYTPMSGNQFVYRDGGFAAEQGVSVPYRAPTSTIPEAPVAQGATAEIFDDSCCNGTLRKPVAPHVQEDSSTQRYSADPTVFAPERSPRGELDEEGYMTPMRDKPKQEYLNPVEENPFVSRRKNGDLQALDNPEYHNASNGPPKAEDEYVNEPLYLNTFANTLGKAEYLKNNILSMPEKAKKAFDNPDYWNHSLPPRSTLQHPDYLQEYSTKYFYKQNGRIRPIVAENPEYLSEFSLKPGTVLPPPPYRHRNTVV
Method in brief: as §1

SMILES: N#CCCNc1nccc(-c2cn(CC(F)F)nc2-c2cnc3[nH]ccc3c2)n1 [RAFi, PF-04880594]
- inhibition at 1 µM (AKT3 (PKB gamma)): 7%
- inhibition at 1 µM (MARK1): 2%
- inhibition at 1 µM (PDGFRA (PDGFR alpha)): 10%
- inhibition at 1 µM (FGR): 2%
- inhibition at 1 µM (AKT2 (PKB beta)): 6%
- inhibition at 1 µM (PTK6 (Brk)): 5%
- inhibition at 1 µM (PIM2): 3%
- inhibition at 1 µM (YES1): 16%
- inhibition at 1 µM (TEK (Tie2)): 2%
- inhibition at 1 µM (EGFR (ErbB1)): 5%
- inhibition at 1 µM [1]: 35%
- inhibition at 1 µM (FGFR1): 1%
- inhibition at 1 µM (PDGFRB (PDGFR beta)): 2%
- inhibition at 1 µM (ITK): 0%
- inhibition at 1 µM (CHEK2 (CHK2)): 7%
- inhibition at 1 µM (AURKA (Aurora A)): 15%
- inhibition at 1 µM (CHEK1 (CHK1)): 3%
- inhibition at 1 µM (NEK2): 40%
- inhibition at 1 µM (JAK3): 9%
- inhibition at 1 µM (PTK2B (FAK2)): 6%
- inhibition at 1 µM (PIM1): 2%
- inhibition at 1 µM (ERBB4 (HER4)): 24%
